# From patent publication US20120131849A1, “METHOD FOR STORAGE OF SEEDS” (priority 2009, published 2012)
# Tested on: seeds of Eustoma grandiflorum “F1 Mellow Violet”
# Experiment: Germination rate test after storage of seeds in oily substance
# Format: in vivo
# Description: After a predetermined amount of culture soil (Metro-Mix350, manufactured by Scotts) was filled into a cell tray, 100 seeds were sown, and water sprinkling was performed as necessary. With regard to the light conditions, suitable conditions for each seed type were adopted. After sowing, the number of germinated seeds was measured over time, and the number of germinated seeds with respect to the 100 seeds was calculated as a germination rate (%).
# The germination rate (%) obtained 10 days after sowing was particularly evaluated as germination vigor (%). The germination vigor is a measure of germination speed or whether germination is uniform, and higher germination vigor values mean faster and more uniform germination. In the case of seeds of a plant that takes long time to germinate, the number of days after sowing was changed as appropriate to obtain the germination vigor.
# The germination rate (%) obtained 14 days after sowing was particularly evaluated as the final germination rate (%). In the case of seeds of a plant that takes long time to germinate, the number of days after sowing was changed as appropriate to obtain the final germination rate. […]
# First, 0.01 g of seeds of Eustoma grandiflorum “F1 Mellow Violet” was placed in each of 1.5 mL test tubes. Subsequently, 1.5 mL of a medium-chain triglyceride was gently poured into each test tube, which was then capped. The seeds were completely immersed in the medium-chain triglyceride. The test tubes were stored at 4° C. or 25° C. in darkness for 6 months, 18 months, or 36 months, and afterward, the seeds were removed from the test tubes, and a germination rate test was performed. A germination rate test for Eustoma grandiflorum “F1 Mellow Violet” seeds immediately after purchasing was also performed at the same time.
SMILES,"Germination rate (%) 10 days (germination vigor) (Stored at 4° C., 6 months) [%]","Germination rate (%) 14 days (final germination rate) (Stored at 4° C., 6 months) [%]","Germination rate (%) 10 days (germination vigor) (Stored at 4° C., 18 months) [%]","Germination rate (%) 14 days (final germination rate) (Stored at 4° C., 18 months) [%]","Germination rate (%) 10 days (germination vigor) (Stored at 4° C., 36 months) [%]","Germination rate (%) 14 days (final germination rate) (Stored at 4° C., 36 months) [%]","Germination rate (%) 10 days (germination vigor) (Stored at 25° C., 6 months) [%]","Germination rate (%) 14 days (final germination rate) (Stored at 25° C., 6 months) [%]","Germination rate (%) 10 days (germination vigor) (Stored at 25° C., 18 months) [%]","Germination rate (%) 14 days (final germination rate) (Stored at 25° C., 18 months) [%]","Germination rate (%) 10 days (germination vigor) (Stored at 25° C., 36 months) [%]","Germination rate (%) 14 days (final germination rate) (Stored at 25° C., 36 months) [%]"
"CCCCCCCC(=O)O [Example 11, octanoic acid]",93,93,96,96,95,95,93,93,91,93,90,93
"CCCC(=O)O [Example 10, butanoic acid]",94,94,95,95,95,96,95,96,93,96,92,95
"CCCCCCCCCCCO [Example 17, undecyl alcohol]",94,96,94,94,90,92,94,95,95,94,89,92
